Structures are written as SMILES. Like-named read-outs stand apart in the source and are kept apart here.

Data set [1] can be described thus: Kinetic solubility in pH 7.4 phosphate buffer. In kind it is physicochemical. The protocol: (§1) Physicochemical and ADME properties were determined using the following assays: microsomal stability intrinsic clearance (Clint) in mouse liver microsomal solution, MDCK permeability (Papp), protein binding (fu) in mouse plasma, and kinetic solubility in pH 7.4 phosphate buffer (Table 7).

The target in a further data set is T1, His-PLCγ2 protein (Homo sapiens, UniProt P16885).
T1 sequence (P16885 1-1265): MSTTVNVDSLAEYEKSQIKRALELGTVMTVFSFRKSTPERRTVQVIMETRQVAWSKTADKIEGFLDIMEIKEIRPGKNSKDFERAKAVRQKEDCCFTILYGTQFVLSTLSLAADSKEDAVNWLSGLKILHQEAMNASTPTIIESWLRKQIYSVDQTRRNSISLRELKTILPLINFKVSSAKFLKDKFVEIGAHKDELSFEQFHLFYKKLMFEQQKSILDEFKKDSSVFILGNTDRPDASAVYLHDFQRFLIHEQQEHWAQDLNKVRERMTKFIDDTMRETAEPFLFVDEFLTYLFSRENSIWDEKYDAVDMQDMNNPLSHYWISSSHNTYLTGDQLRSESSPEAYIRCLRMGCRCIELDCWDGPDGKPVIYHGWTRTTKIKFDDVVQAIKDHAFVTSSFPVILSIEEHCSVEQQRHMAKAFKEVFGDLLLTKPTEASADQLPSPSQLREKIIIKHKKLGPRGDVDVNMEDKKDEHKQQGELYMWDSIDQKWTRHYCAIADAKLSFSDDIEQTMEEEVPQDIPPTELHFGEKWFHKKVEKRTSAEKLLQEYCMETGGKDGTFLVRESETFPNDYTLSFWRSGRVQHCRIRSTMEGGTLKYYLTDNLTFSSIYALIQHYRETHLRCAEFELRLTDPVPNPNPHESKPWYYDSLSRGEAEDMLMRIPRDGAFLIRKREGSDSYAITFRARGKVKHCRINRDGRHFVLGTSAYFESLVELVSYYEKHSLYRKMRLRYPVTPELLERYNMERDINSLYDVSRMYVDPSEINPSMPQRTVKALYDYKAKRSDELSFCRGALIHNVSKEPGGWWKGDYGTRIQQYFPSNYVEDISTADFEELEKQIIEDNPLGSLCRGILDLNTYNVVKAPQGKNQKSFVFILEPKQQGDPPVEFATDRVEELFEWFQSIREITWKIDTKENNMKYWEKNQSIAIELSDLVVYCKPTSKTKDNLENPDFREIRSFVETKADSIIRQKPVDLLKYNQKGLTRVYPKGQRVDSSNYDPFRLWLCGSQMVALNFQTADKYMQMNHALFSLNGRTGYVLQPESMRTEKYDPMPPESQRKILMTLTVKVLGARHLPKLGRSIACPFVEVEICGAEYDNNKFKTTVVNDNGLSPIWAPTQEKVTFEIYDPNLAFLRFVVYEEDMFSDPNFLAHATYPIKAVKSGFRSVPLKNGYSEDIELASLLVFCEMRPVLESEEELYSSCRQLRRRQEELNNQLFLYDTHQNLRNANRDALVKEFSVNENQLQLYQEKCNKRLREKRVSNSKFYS
The data set can be described thus: Affinity selection mass spectrometry (ASMS). In kind it is binding. As to conditions: dose range 100-0.05 μM, PLCγ2 400 nM.

Another data set addresses T2, PLCγ2-HiBit (Homo sapiens, UniProt P16885).
T2 construct: expressed in transfected cells; host or cells: HMC3 cells
T2 sequence (P16885 1-1265): T1 sequence (P16885 1-1265)
The experiment in a line: Cellular thermal shift assay (SplitLuc CETSA), PLCγ2-HiBit in HMC3 cells. In kind it is cell-based. The following applies: for PLCγ2-HiBit %, percent luminescence at highest dose compared to control (DMSO): 100 μM. From the text:
These compounds have been evaluated using a wide variety of assay classes namely target engagement utilizing cellular thermal shift assay (CETSA),^34 affinity selection mass spectrometry (ASMS),^35 biochemical activity employing the fluorogenic probe XY-69,^36 and cellular activity testing for phagocytosis. Cellular Thermal Shift Assays (CETSA) assess cellular target engagement by quantifying changes in protein thermal stability upon ligand binding to endogenous proteins in intact cells.^34 For SAR studies, a split Nano Luciferase (SplitLuc CETSA) version of the assay was utilized to provide sufficient throughput.^37,38 HMC3 cells were stably transfected with PLCγ2-HiBit to enable protein expression in a physiologically relevant cellular context. The thermal stability of this HiBit-labeled protein in intact cells was measured in the following two formats. In the initial screen, using 96-well plates, cells were treated with FBS analogs at a single concentration (100 μM) at 37° C. for 60 min and then exposed to a 3-minute isothermal heating step at 45.9° C. (experimentally determined Tm of PLCγ2-HiBit). Luminescence detection was then conducted with the Nano-Glo HiBit Lytic detection kit (Promega, Cat. N3040).^38 Compound treatment was performed in triplicate, and raw signals were normalized to the mean of the controls (in the same plate) as % of control. When the difference in compound-treated cells >control mean+3SD, the compound was considered positive and selected for further testing with dose-response CETSA. In the dose response CETSA, cells were treated with decreasing concentrations from 100 μM with 1:3 serial dilutions to generate an 8-point curve. An AC50 was calculated with the % of control data using a four-parameter logistic curve regression model, and the percent luminescence remaining at the highest concentration is also reported for the compounds when the difference from the DMSO control is greater than 3× the standard deviation (SD). Otherwise, an AC50 was not calculated.
(HiBiT is a short tag that completes a luciferase, so light tracks the accessible tagged protein.)

A further data set deals with HiBit only. The experiment in a line: Cellular thermal shift assay (CETSA), HiBit only control. In kind it is cell-based, human. The following applies: for HiBit only %, percent luminescence at highest dose with HiBit only compared to control (DMSO): 100 μM.
The nature of data set [2]: Protein binding in mouse plasma. In kind it is in vitro ADME. The protocol: as §1
Data set [3] in a line: Microsomal stability intrinsic clearance. In kind it is in vitro ADME. The following applies: mouse liver microsomes. The protocol: as §1
For orientation: Liver microsomes are vesicles of endoplasmic reticulum, rich in cytochrome P450 enzymes.

The subject of the next data set is MDCK. The data set can be described thus: MDCK permeability. In kind it is in vitro ADME. The following applies: estimate of intestinal absorption. The protocol:
as §1

Procedure for His-PLCγ2 protein: Using a dose range of 100-0.05 μM in 384 well low-volume polypropylene microtiter plates, a solution of PLCγ2 (final concentration 400 nM) was transferred to biochip arrays functionalized with a Tris-Ni-NTA-presenting self-assembled monolayer to immobilize the His-tagged protein. The arrays were incubated for 90 min in a humidified chamber to prevent evaporation and allow for specific immobilization of the His-PLCγ2 protein, along with any bound small molecules. The arrays were purified by a rapid <3 second gentle wash step with deionized ultra-filtered water and dried with compressed air. ASMS was performed using the reflector positive mode on an Aβ Sciex TOF-TOF 5800 System (Aβ Sciex, Framingham, MA).

As to `Cc1cc(C)c(S(=O)(=O)Nc2cccc(C(F)(F)F)c2)c(C)c1` [Compound 1, 2,4,6-trimethyl-N-(meta-3-trifluoromethyl-phenyl)-benzenesulfonamide, reference compound], in data set [1], the Kinetic solubility was 21 to 40 µM. For the same compound, the “target engagement, signal against background” value on His-PLCγ2 protein is recorded as “neither 1 or 2 indicated substantial evidence of target engagement”. Further, on PLCγ2-HiBit, the “PLCγ2-HiBit %, percent luminescence at highest dose compared to control (DMSO)” value (shortened to “PLCγ2-HiBit %, percent luminescence”) is 105%. The “PLCy2-HiBit % @100” value at PLCγ2-HiBit (Table 1) was 105%.
On to `Cc1cc(C)c(S(=O)(=O)Nc2ccccc2C(F)(F)F)c(C)c1` [Compound 2, o-3M3FBS, reference compound], for which, at His-PLCγ2 protein, the “target engagement, signal against background” value was “neither 1 or 2 indicated substantial evidence of target engagement”. At PLCγ2-HiBit, the “PLCγ2-HiBit %, percent luminescence” value is 102%. Also, on PLCγ2-HiBit (Table 1), the “PLCy2-HiBit % @100” value came out at 102%.
Regarding `Cc1cc(C)c(S(=O)(=O)NC2CCCNC2)c(C)c1` (stereo not shown) [Compound 11], in the data set with HiBit only, the “HiBit only %, percent luminescence at highest dose with HiBit only compared to control (DMSO)” value is listed as 93%. Also, the “PLCγ2-HiBit %, percent luminescence” value at PLCγ2-HiBit is on record as 64%.
On to `O=S(=O)(Nc1ccc(Br)cc1F)c1cccs1` [Compound 8], for which the “fu, fraction unbound” value in data set [2] stood at 0.0193. The Kinetic solubility in data set [1] is >100 µM. In the data set with HiBit only, the “HiBit only %, percent luminescence at highest dose with HiBit only compared to control (DMSO)” value was found to be 44%. Besides, the “HiBit only % @100 μM” value with HiBit only (Table 1, @100 μM) amounted to 44%. For the same compound, the “Clint, intrinsic clearance” value in data set [3] stood at 77.83 µL/min/mg. Moreover, the “PLCγ2-HiBit %, percent luminescence” value on PLCγ2-HiBit turned out to be 66%. In addition, the “PLCy2-HiBit % @100” value on PLCγ2-HiBit (Table 1) was 66%. Also, the AC50 was > 100 µM at PLCγ2-HiBit (Table 1, CETSA dose response, read-out: AC50) and > 100 µM on PLCγ2-HiBit (Table 5, 8-point dose response from 100 μM, HMC3 cells, 45.9° C., read-out: AC50, concentration that induced a half-maximum loss of luminesce compared to control). For the same compound, the “Papp, MDCK permeability” value with MDCK was 95.0 ×10−^6 cm/s.

Source of the values: patent US20250020635A1, “ASSAY METHODS AND USES THEREOF FOR SCREENING ALZHEIMER'S DISEASE TREATMENT COMPOUNDS” (priority 2023, published 2025).
